Experimental data from patent publication US7763626B2, “Compositions and method for enhancing the therapeutic activity of opiods in treatment of pain” (Trustees of Dartmouth College, priority 2004, dated 2010).

Assays:
Male Sprague-Dawley rats = assay: Morphine tolerance model, acute intrathecal morphine evaluated by thermal and mechanical test paradigms; format: in vivo, rat
Procedure: Male Sprague-Dawley rats (175-200 grams, Harlan, Indianapolis, Ind.) were divided into two groups (n=8 per group). Rats received subcutaneous injections of either saline or morphine (10 mg/kg; Sigma, St. Louis, Mo.) twice daily at 0800 to 0900 and 1600-1700 hour for 5 days in order to induce opioid tolerance. Chronic morphine withdrawal-induced hyperalgesia and allodynia were assessed in the animals 16 hours after the last injection of morphine. Following the recording of morphine withdrawal-induced hyperalgesia and allodynia, animals were treated with morphine (5 microgram) acutely via lumbar intrathecal injection to study the expression of morphine tolerance. Acute analgesic activity or intrathecal morphine in morphine-tolerant and chronic aline-treated rats were evaluated by mechanical (Analgesy-Meter) and thermal (tail-flick) test paradigms. Behaviors recorded prior to the acute administration of intrathecal morphine served as the basal latency measures.
With an understanding of the effects of morphine alone, separate groups of rats (n=8) received with saline or morphine (10 mg/kg subcutaneously, twice daily for 5 days) and also received once daily injections (at 1100 to 1200 hour) of propentofylline (1 and 10 micrograms) or saline via direct lumbar puncture during the induction of morphine tolerance. Again, chronic morphine withdrawal-induced hyperalgesia and allodynia were assessed in the animals 16 hours after the last subcutaneous morphine injection. […] As before, the acute analgesic activity of intrathecal morphine in morphine-tolerant and saline-injected rats was evaluated by mechanical (Analgesy-Meter) and thermal (tail-flick) test paradigms. Behavior recorded prior to the acute administration of intrathecal morphine served as the basal latency.
In blinded testing, rats were subjected to sequential series of 10 tactile stimulations to the dorsal surface of the ipsilateral hindpaw using […] von Frey filaments (Stoelting Co., WoodDale, Ill.) sequentially. The number of foot withdrawals to this normally non-noxious stimulus determined mechanical allodynia. Mechanical sensitivity was assessed by recording the total number of responses elicited during three successive trials separated by at least 10 minutes. The pressure required to elicit paw withdrawal, the paw pressure threshold was determined.
Thermal nociceptive thresholds were evaluated by the hot water tail-flick test that has been described previously (Bian, D. et al. 1999. Brain Res. 831:55-63). […] Again, the total number of responses elicited during three successive trials separated by at least 10 minutes was recorded and then expressed as the % maximal possible effect. […]

GFAP mRNA = assay: Real-time PCR of GFAP mRNA at L5 lumbar spinal cord; format: in vivo, rat
Procedure: Total RNA was treated with DNase I (Ambion, Austin, Tex.) to remove DNA contamination before cDNA synthesis. The reverse transcription (RT) was carried out in a 100 μl total reaction volume containing RT buffer, dNTPs, multiscribe reverse transcriptase, RNase-free water and 10 μg of DNase-treated total RNA. The RT reaction was carried out at 25° C. for 10 minutes, 37° C. for 120 minutes, and 95° C. for 5 minutes. Real-time PCR analysis was performed using gene-specific primers and probes that were designed and blasted against GENBANK to confirm their species and gene specificity. […] The real-time PCR reactions were carried out using Platinum Taq DNA polymerase, 20 mM Tris HCl (pH 8.4), 50 mM KCl, 3 mM MgCl2, 200 μM dGTP, dCTP, and dATP, 400 μM of dUTP and 1 U uracyl DNA glycosylase (UDG), 900 nM forward and reverse primers, 300 nM TaqMan probe, and 10-fold dilution of cDNA (50 ng) from the RT step. Primers and probes for glyceraldehyde-3-phosphate (GADPH), GFAP and Mac-1 were obtained form Applied Biosystems (LaJolla, Calif.). The relative standard curves generated by plotting the threshold value versus the log of the amount of total cDNA added to the reaction (1-10000 pg) were used to compare the relative amount of target genes from control and chronic morphine-treated animals.

GLAST = assay: Immunohistochemical assessment of glutamate transporters in spinal cord; format: in vivo, rat; conditions: day 12 after L5 spinal nerve transection; propentofylline 10 μg i.t. daily
Procedure: (§1) Experiments were performed to determine how propentofylline-induced suppression of glial activation contribute to reduced behavioral hypersensitivity after nerve injury. In a preventative paradigm, 10 μg of propentofylline (Sigma) to male Sprague-Dawley rats in 40 μl of sterile saline, or saline vehicle alone was administered intrathecally (i.t.) by lumbar puncture at the L4/5 level under brief halothane anesthesia (n=6-8/group). Treatment began one hour prior to L5 spinal nerve transection and continued daily in the evening until day 4 or 12 post-transection. Rats received either an L5 spinal nerve transection or sham surgery on day 0. The development of mechanical allodynia was monitored as described above in the morning at approximately 15 hours post-propentofylline or saline injection. […]
(§2) For assessment of GFAP, GLT-1 and GLAST immunoreactivity, a separate group of animals (n=4/treatment) were anesthetized and transcardially perfused with 0.1 M PBS (phosphate-buffered saline), pH 7.4, followed by 4% paraformaldehyde in PBS on day 12 post-L5 spinal nerve transection. […] The sections were examined with an Olympus fluorescence microscope, and images were captured with a Q-Fire cooled camera. […]

GLT-1 = assay: as above; format: in vivo, rat; conditions: twelve days after L5 spinal nerve transection; propentofylline 10 μg i.t. daily
Procedure: as §1, §2

TNF-α mRNA = assay: RNase protection assay, cytokine mRNA at L5 lumbar spinal cord; conditions: propentofylline 10 micrograms intrathecally for 5 days during induction of morphine tolerance
Procedure: After behavioral testing for reactions to the combined treatment, rats were sacrificed and decapitated. An 18-gauge needle was inserted into the caudal end of the vertebral column and the spinal cord was expelled with ice-cold phosphate-buffered saline. The spinal cord was frozen immediately on dry ice and stored at −80° C. until homogenization. The L5 lumbar spinal cord was isolated from the intact frozen cord at the time of mRNA and protein quantification. Total RNA was isolated from the L5 spinal cord by the TRIzol extraction method (Invitrogen Corporation, Carlsbad, Calif).
Assessment of the temporal cytokine mRNA expression in the L5 lumber spinal cord was performed using a Ribonuclease Protection Assay technique. A Multiprobe RPAse kit was used (Pharmingen, San Diego, Calif.). […] Quantitative image analysis was employed to compare mRNA levels based on band intensities for each cytokine. The intensity of each band was measured using image analysis software and assigned an arbitrary unit based on the measured intensity levels. The value for the normalized quantity for each band was obtained by dividing by the L32 house-keeping gene control. Individual mRNA concentration was calculated as the ratio of the expression compared with saline-treated animals in which normal values were weighted as 1.

[1] = propentofylline 10 micrograms intrathecally for 5 days

CCCn1cnc2c1c(=O)n(CCCCC(C)=O)c(=O)n2C [propentofylline]
expression of spinal nociceptive tolerance to intrathecal morphine (5 micrograms) (Male Sprague-Dawley rats; propentofylline 1 and 10 micrograms intrathecally for 5 days during induction of morphine tolerance, thermal and mechanical test paradigms): significantly attenuated
anti-nociceptive activity of acute intrathecal morphine (5 micrograms) in chronic saline-treated rats (Male Sprague-Dawley rats; [1]): no effect
nociceptive threshold in saline-treated rats (Male Sprague-Dawley rats; [1]): no effect
GFAP mRNA levels at the L5 lumbar spinal cord (GFAP mRNA; compared to saline-treated controls, morphine 10 mg/kg twice daily 5 days, or propentofylline 10 micrograms intrathecally 5 days in saline-treated rats): no effect
chronic morphine-induced upregulation of GFAP (GFAP mRNA; propentofylline during the induction phase of morphine tolerance): significantly attenuated
GLAST immunoreactivity on the ipsilateral side (GLAST): did not enhance
GLT-1 immunoreactivity, ipsilateral versus contralateral dorsal horns (GLT-1): no qualitative difference
morphine-induced mRNA upregulation for TNF-α (TNF-α mRNA): significantly attenuated
